Laboratory results from PubChem BioAssay AID179 (DTP/NCI, 2004).
Activity calls are given as the source filed them.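 How the source made its calls: active means compounds giving half or more protection of infected cells from virus-caused growth loss, again on retest; inactive means the rest.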

Tested on: CEM cells HIV-1 protection, formazan growth assay
Assay: NCI AIDS Antiviral Assay
Conditions: for IC50: measured here: growth of uninfected CEM cells
Method in brief: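 Protection of CEM cells against HIV-1 was scored from cell growth (soluble formazan) across five concentrations, with parallel uninfected cells. Lack of protection may reflect toxicity.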

Compound: OC1(c2ccccc2)CC2CCC(C1)N2CCCC(O)(c1ccccc1)c1ccccc1 (configuration not stated)
- EC50: > 200 µM
- IC50: 28.8 µM

Compound: COC(=O)c1cc(C#N)[nH]c1-c1cc(Br)cs1
- EC50: > 200 µM
- IC50: 11.7 µM

Compound: CC(C)(C)c1cc(CCCCCCCC2(CCCCCCCc3cc(C(C)(C)C)cc(C(C)(C)C)c3)OC(COCCOCCCCCC#N)C(COCCOCCCCCC#N)O2)cc(C(C)(C)C)c1 (configuration not stated)
- outcome: inactive

Compound: Cc1ccc2nc(NC(=O)C(=O)C3C(=O)NC(=S)NC3=O)sc2c1
- EC50: > 692 µM
- IC50: 417 µM

Compound: CCc1cccc(C)c1NC(=O)CC(=O)NNC(N)=S
- EC50: > 324 µM
- IC50: > 324 µM

Compound: NCCSC12CC3CC(CC(C3)C1)C2
- EC50: > 200 µM
- IC50: 67.6 µM

Compound: O=c1cc(CSc2c(-c3ccccc3)c(=O)n(-c3ccccc3)c(=S)n2-c2ccccc2)[nH]c(=O)[nH]1
- EC50: > 200 µM
- IC50: > 200 µM

Compound: C1=Cc2nc1c(-c1ccncc1)c1ccc([n-]1)c(-c1ccncc1)c1nc(c(-c3ccncc3)c3ccc([n-]3)c2-c2ccncc2)C=C1.[Zn+2]
- EC50: > 19.1 µM
- IC50: > 19.1 µM

Compound: NC1=CN(CCCO)C2=N/C(=C\c3ccccc3)C(=O)N12
- EC50: > 200 µM
- IC50: > 200 µM

Compound: O=C(Cc1ccccc1[N+](=O)[O-])C(CO)c1ccccc1[N+](=O)[O-] (configuration not stated)
- EC50: > 110 µM
- IC50: > 110 µM

Compound: CC(=O)Nc1ccccc1/C(C#N)=C/c1ccccc1
- EC50: > 200 µM
- IC50: > 200 µM

Compound: COc1cccc(/S(C)=N/S(=O)(=O)c2ccc(C)cc2)c1 (configuration not stated)
- EC50: > 776 µM
- IC50: 214 µM

Compound: CCOC(=O)C1=CNC(C(=O)OCC)C1c1cccn1-c1ccccc1 (configuration not stated)
- EC50: > 200 µM
- IC50: 36.3 µM

Compound: Nc1nc2c(c(=O)[nH]1)C(c1ccc(Cl)cc1)C=C(c1ccccc1)N2 (configuration not stated)
- EC50: > 200 µM
- IC50: 14.1 µM

Compound: CCc1ccccc1N1CCN(C(=O)c2cc(OC)c(OC)c(OC)c2)CC1
- EC50: > 93.3 µM
- IC50: 0.0295 µM

Compound: Cc1ccc(S(=O)(=O)N/N=C(\c2nc3ccc([N+](=O)[O-])cc3[nH]c2=O)C(O)c2ccc([N+](=O)[O-])cc2)cc1 (configuration not stated)
- EC50: > 126 µM
- IC50: 112 µM

Compound: Cc1ccc(S(=O)(=O)N2CCCSCCN(S(=O)(=O)c3ccc(C)cc3)CCCSCC2)cc1
- EC50: > 34.7 µM
- IC50: > 34.7 µM

Compound: CCCCCCCCCCCc1cc(=O)c2c(O)cccc2o1
- EC50: > 14.8 µM
- IC50: > 14.8 µM

Compound: C(CCC[Te][Te]CCCCCCOC1CCCCO1)CCOC1CCCCO1 (configuration not stated)
- outcome: inactive

Compound: CCCNC(=O)N(C(C)(C)C)S(=O)(=O)c1ccc(Cl)cc1
- outcome: inactive

Compound: CC12CCCC3(CC(=O)C(C)(C)C3C(=O)C1)C2 (configuration not stated)
- EC50: > 200 µM
- IC50: > 200 µM

Compound: COc1ccc2c(c1)c1c3n2CCNN=C3CCC1
- EC50: > 74.1 µM
- IC50: > 74.1 µM

Compound: O=C1C(=Cc2cccc(Cl)c2)N=C(c2ccccc2)N1n1c(-c2ccccc2)nc2ccccc2c1=O
- EC50: > 200 µM
- IC50: 35.5 µM

Compound: C/C(=C\c1ccccc1)C(O)C(=O)c1nc2ccc(Cl)cc2[nH]c1=O (configuration not stated)
- EC50: > 708 µM
- IC50: 33.9 µM

Compound: C[C@@]12c3c4ccc(C=O)c3Oc3ccc(C=O)c(c31)Oc1c(C=O)ccc(c12)O4
- EC50: > 50.1 µM
- IC50: > 50.1 µM

Compound: CCCSP(SCCC)SCCC
- outcome: inactive

Compound: CC(C)(C)OC(=O)N1CCc2c(n(C/C=C/c3ccccc3)[nH]c2=O)C1
- EC50: > 200 µM
- IC50: 19.1 µM

Compound: NC(=O)C(N)C(F)c1ccccc1 (configuration not stated)
- EC50: > 200 µM
- IC50: > 200 µM

Compound: CN1CCc2c(sc(N)c2C#N)C1
- outcome: inactive

Compound: O=C(O)c1cc(-c2ccccc2)c(-c2ccccc2)cc1C(c1ccccc1)c1ccccc1
- EC50: > 200 µM
- IC50: 28.2 µM

Compound: COc1ccc(C=C(C(C)=O)C(C)=O)cc1
- EC50: > 437 µM
- IC50: 58.9 µM

Compound: CC1(C)OCC=CCO1
- EC50: > 200 µM
- IC50: > 200 µM

Compound: CCN1C[C@]2(C)CCC(OC)C34[C@@H]5C[C@@H]6C(OC)[C@@H]5[C@@]5(C[C@@H]6OC)OCO[C@]5([C@H]13)[C@@H](OC(C)=O)[C@@H]42 (some centres not stated)
- outcome: inactive

Compound: CC(=O)Nc1cccc(C(CC(=O)O)CC(=O)O)c1
- EC50: > 200 µM
- IC50: > 200 µM

Compound: CC1(C)CC(=O)C2=C(C1)Nc1ccc(Cl)cc1NC2c1ccccc1 (configuration not stated)
- EC50: > 200 µM
- IC50: 75.9 µM

Compound: C1=CC2C=CC(C=C1)[PH+]2c1ccccc1.C1=CC2C=CC(C=C1)[PH+]2c1ccccc1.[C-]#[O+].[C-]#[O+].[C-]#[O+].[Fe] (configuration not stated)
- EC50: > 17.8 µM
- IC50: > 17.8 µM

Compound: COc1cc(NCCCNCC(C)(C)C)c2ncccc2c1
- EC50: > 200 µM
- IC50: 81.3 µM

Compound: O=C(/C=C/c1ccc(O)c(O)c1)OCCOC(=O)/C=C/c1ccc(O)c(O)c1
- EC50: > 200 µM
- IC50: 10 µM

Compound: O=C(C[N+]12CC=C(CO)C1C(O)CC2)c1ccc(Br)cc1 (configuration not stated)
- EC50: > 575 µM
- IC50: > 575 µM

Compound: CCCCCC(O)[C@H]1C(=O)C[C@@H](O[Si](C)(C)C(C)(C)C)[C@@H]1/C=C/CCOCc1ccccc1 (some centres not stated)
- outcome: inactive

Compound: COC(=O)c1noc2c1CSc1ccccc1-2
- EC50: > 263 µM
- IC50: 123 µM

Compound: COc1cc(C(C#N)S(=O)(=O)O)ccc1O (configuration not stated)
- EC50: > 200 µM
- IC50: > 200 µM

Compound: COc1ccc2ccccc2c1CN1CCOCCOCCN(Cc2c(OC)ccc3ccccc23)CCOCCOCC1
- EC50: > 8.71 µM
- IC50: 4.9 µM

Compound: Nc1nc(Cl)cc(NCC2(CCO)CCC2)n1
- EC50: > 200 µM
- IC50: 138 µM

Compound: CC1(C)CN(CCC#N)C(c2ccc([N+](=O)[O-])cc2)O1 (configuration not stated)
- EC50: > 200 µM
- IC50: 102 µM

Compound: Cc1ccc(-c2cc(=S)n(-c3ccccc3)c3nc(=S)n(-c4ccccc4)c(N)c23)cc1
- EC50: > 200 µM
- IC50: 138 µM

Compound: O=C1CC2CC(=O)CC2(C2CC=CC2)C1 (configuration not stated)
- EC50: > 245 µM
- IC50: > 245 µM

Compound: O=C(CC(=O)N1CCN(c2ccccn2)CC1)N1CCN(c2ccccn2)CC1
- EC50: > 97.7 µM
- IC50: > 97.7 µM

Compound: CCOC(=O)COc1ccc2c(C)c(CCN(CC)CC)c(=O)oc2c1
- EC50: > 631 µM
- IC50: > 631 µM

Compound: O=C1C/C(Br)=C\c2ccccc2-c2ccccc21
- EC50: > 1.12 µM
- IC50: 0.389 µM

Compound: NC(=O)NC1=NCCC(=O)N1CCc1c[nH]c2ccccc12
- EC50: > 200 µM
- IC50: 12.3 µM

Compound: COC1=CC(=O)C=C(OC)C1=O
- EC50: > 214 µM
- IC50: 1.12 µM

Compound: COc1ccc(Cc2cc(N=O)c(C)cc2O)cc1
- EC50: > 200 µM
- IC50: 12.6 µM

Compound: COc1ccc2c(c1)OC[C@@H]1c3cc(O)c(OCc4ccccc4)cc3O[C@]21C
- EC50: > 200 µM
- IC50: 24 µM

Compound: NCCN.[O-][Cl+3]([O-])([O-])[O-].[Pd+2].c1ccc(-c2ccccn2)nc1
- EC50: > 200 µM
- IC50: 30.2 µM

Compound: CC1=NN2C(c3ccc(Cl)cc3)=CSC2=NC(C)(C)C1
- EC50: > 162 µM
- IC50: 93.3 µM

Compound: Cc1n[nH]c(=O)n1Nc1ccccc1
- EC50: > 200 µM
- IC50: > 200 µM

Compound: COC(=O)c1ccc(NCC2=CC(=O)C=CC2=O)cc1O
- EC50: > 200 µM
- IC50: 4.47 µM

Compound: Clc1nc(Cl)nc(-c2cccn2-c2ccccc2)n1
- EC50: > 200 µM
- IC50: 129 µM

Compound: O=C(O)c1nc2ccc(C(F)(F)F)cc2[nH]c1=O
- EC50: > 200 µM
- IC50: > 200 µM

Compound: Cc1cnc2c(c1)C(=O)C1=C(OC(C)(C)CC1O)C2=O (configuration not stated)
- EC50: > 26.3 µM
- IC50: 3.39 µM

Compound: C[C@@H]1C[C@@H]2C(=O)N(c3ccccc3)C(=O)[C@@H]2c2[nH]c3ccc(Br)cc3c21
- outcome: inactive

Compound: COc1c2occc2c(N=Cc2c[nH]c3ccccc23)c2ccc(=O)oc12
- EC50: > 50.1 µM
- IC50: 28.2 µM

Compound: CC(C)(C)OC(=O)CC(NC(=O)OC(C)(C)C)C(=O)N[C@@H]1CCCC[C@H]1C(=O)OCc1ccccc1 (some centres not stated)
- EC50: > 200 µM
- IC50: 10.5 µM

Compound: Cc1ncc([N+](=O)[O-])n1CCNC(=O)CCCn1cnc([N+](=O)[O-])n1
- EC50: > 200 µM
- IC50: > 200 µM

Compound: C1#CCSCC#CCSC1
- EC50: > 42.7 µM
- IC50: > 42.7 µM

Compound: CC(=S)N/C=C(\C#N)S(=O)(=O)c1ccc(C)cc1
- EC50: > 200 µM
- IC50: > 200 µM

Compound: CN1Cc2ccccc2/C=C\c2ccccc21
- EC50: > 200 µM
- IC50: 132 µM

Compound: COc1cc(OC)cc(N(C)Cc2cnc3nc(N)nc(N)c3c2C)c1
- EC50: > 200 µM
- IC50: 0.138 µM

Compound: [O]=[Bi](=[O])[O]CC(O)CO (configuration not stated)
- EC50: > 4.37 µM
- IC50: > 4.37 µM

Compound: Cc1[nH]c(=O)nc2nc3cc(Cl)cc(Cl)c3c(NC(C)(CO)CO)c12
- EC50: > 200 µM
- IC50: > 200 µM

Compound: O=c1c2cccnc2[nH]c2ccc3scnc3c12
- EC50: > 200 µM
- IC50: > 200 µM

Compound: Cc1cc(C)nc(NC(=S)Nc2cccc(Cl)c2)c1
- EC50: > 200 µM
- IC50: 27.5 µM

Compound: Nn1c(=S)[nH]n2cnnc12
- EC50: > 1580 µM
- IC50: 186 µM

Compound: CC(=O)[O-].N.N.N.N.N.[Co+3].[O-][Cl+3]([O-])([O-])[O-]
- outcome: inactive

Compound: N#C/C=C\c1ccc(F)cc1
- EC50: > 245 µM
- IC50: > 245 µM

Compound: CC(O)(c1ccc(OCCC[N+](C)(C)C)cc1)C(C)(O)c1ccc(OCCC[N+](C)(C)C)cc1 (configuration not stated)
- EC50: > 1820 µM
- IC50: 794 µM

Compound: O=C1c2c(O)cc(O)cc2O[C@@]12c1c(cc(O)c3c1O[C@H](c1ccc(O)cc1)[C@@H](O)C3)O[C@@H]2c1ccc(O)cc1
- EC50: 2.57 µM
- IC50: 50.1 µM

Compound: COc1ccc2c(c1)OC(C)(C)C1c3c(cc(OC)c(O)c3C)OC21 (configuration not stated)
- EC50: > 200 µM
- IC50: 9.33 µM

Compound: COCOc1c(C(O[Si](C)(C)C(C)(C)C)c2cnc(Sc3ccccc3)n2C)ccc(OC)c1OC (configuration not stated)
- EC50: > 200 µM
- IC50: 4.27 µM

Compound: CC(CCC#N)(CCC#N)C(=O)CC(O)(C(F)(F)F)C(F)(F)F
- EC50: > 200 µM
- IC50: 2.34 µM

Compound: Cc1ccc2c(c1)C(c1ccccc1)C1COC(=O)C1O2 (configuration not stated)
- EC50: > 93.3 µM
- IC50: 5.25 µM

Compound: COC(=O)CCC(=O)c1ccc2c(c1)CC1(C2)Cc2ccc3c(c2C1)CCCC3=O (configuration not stated)
- EC50: > 200 µM
- IC50: 8.51 µM

Compound: N#C/C(=C/N1C(=O)/C(=C/c2ccc([N+](=O)[O-])cc2)SC1=S)c1nc2ccccc2s1
- EC50: > 200 µM
- IC50: 15.5 µM

Compound: CCCCCCCCCCCCCC(=O)OCC1OC(n2cc(C)c(=O)[nH]c2=O)CC1O (configuration not stated)
- EC50: > 200 µM
- IC50: 11.7 µM

Compound: CC1C2Cc3ccc(O)cc3C1(C)CCN2C (configuration not stated)
- EC50: > 129 µM
- IC50: > 129 µM

Compound: CCOc1ccc(C(C)c2cc3c(cc2OC)OCO3)cc1 (configuration not stated)
- EC50: > 33.1 µM
- IC50: 0.468 µM

Compound: c1ccc(OCc2nnc(CCCCCCCCc3nnc(COc4ccccc4)o3)o2)cc1
- EC50: > 200 µM
- IC50: > 200 µM
